Two compounds from PMC4457528, “Identification of Novel Small Molecule Inhibitors of Oncogenic RET Kinase” (PLoS ONE, 2015) can be followed below.

One experiment concerns Ba/F3-RET/PTC3 cells. As to the kind of experiment: Growth curves, Ba/F3 cells expressing RET/PTC3. The note with it: Ba/F3 RET/PTC3, without IL-3.
Experiment [1] has as its target T1, KinomeScan kinase panel (Homo sapiens, UniProt O14733).
T1 construct: purchased DiscoveRx (KinomeScan)
Nature of the experiment: KinomeScan kinase panel, single concentration 10 µM. Type of experiment: binding. The note with it: MKK7, 10 µM.

Experiment [2] has as its target T2, KinomeScan kinase panel (Homo sapiens, UniProt O14936).
T2 construct: purchased DiscoveRx (KinomeScan)
Described as above. The note with it: CASK, 10 µM; read-out: score (%). Type of experiment: binding.

The target in experiment [3] is T3, KinomeScan kinase panel (Homo sapiens, UniProt P10721, A829P).
T3 construct: purchased DiscoveRx (KinomeScan)
The description is as above. Conditions: KIT(A829P), 10 µM; read-out: score (%). The experiment is classed as binding.

For experiment [4], the target named is T4, KinomeScan kinase panel (Homo sapiens, UniProt P51956).
T4 construct: purchased DiscoveRx (KinomeScan)
T4 sequence (P51956 whole entry): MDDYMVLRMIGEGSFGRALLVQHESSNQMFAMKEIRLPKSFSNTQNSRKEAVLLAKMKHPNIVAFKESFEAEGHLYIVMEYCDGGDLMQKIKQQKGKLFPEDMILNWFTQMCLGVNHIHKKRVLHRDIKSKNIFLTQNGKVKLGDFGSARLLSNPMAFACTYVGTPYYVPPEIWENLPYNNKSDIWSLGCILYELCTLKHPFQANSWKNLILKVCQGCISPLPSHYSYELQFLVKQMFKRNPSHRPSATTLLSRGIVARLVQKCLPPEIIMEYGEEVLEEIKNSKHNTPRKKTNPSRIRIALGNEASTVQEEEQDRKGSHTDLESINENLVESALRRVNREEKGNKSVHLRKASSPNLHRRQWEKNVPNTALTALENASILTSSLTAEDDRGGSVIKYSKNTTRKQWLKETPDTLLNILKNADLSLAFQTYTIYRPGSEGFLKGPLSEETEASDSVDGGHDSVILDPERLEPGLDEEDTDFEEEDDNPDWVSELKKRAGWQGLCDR
The experiment is described as above. The experiment is classed as binding. Conditions: NEK3, 10 µM; read-out: score (%).

Experiment [5] has as its target T5, KinomeScan kinase panel (Homo sapiens, UniProt Q13163).
T5 construct: purchased DiscoveRx (KinomeScan)
Described as above. The experiment is classed as binding. Conditions: MEK5, 10 µM; read-out: score (%).

Experiment [6] deals with T6, KinomeScan kinase panel (Homo sapiens, UniProt Q5S007, G2019S).
T6 construct: purchased DiscoveRx (KinomeScan)
T6 sequence (Q5S007 whole entry G2019S): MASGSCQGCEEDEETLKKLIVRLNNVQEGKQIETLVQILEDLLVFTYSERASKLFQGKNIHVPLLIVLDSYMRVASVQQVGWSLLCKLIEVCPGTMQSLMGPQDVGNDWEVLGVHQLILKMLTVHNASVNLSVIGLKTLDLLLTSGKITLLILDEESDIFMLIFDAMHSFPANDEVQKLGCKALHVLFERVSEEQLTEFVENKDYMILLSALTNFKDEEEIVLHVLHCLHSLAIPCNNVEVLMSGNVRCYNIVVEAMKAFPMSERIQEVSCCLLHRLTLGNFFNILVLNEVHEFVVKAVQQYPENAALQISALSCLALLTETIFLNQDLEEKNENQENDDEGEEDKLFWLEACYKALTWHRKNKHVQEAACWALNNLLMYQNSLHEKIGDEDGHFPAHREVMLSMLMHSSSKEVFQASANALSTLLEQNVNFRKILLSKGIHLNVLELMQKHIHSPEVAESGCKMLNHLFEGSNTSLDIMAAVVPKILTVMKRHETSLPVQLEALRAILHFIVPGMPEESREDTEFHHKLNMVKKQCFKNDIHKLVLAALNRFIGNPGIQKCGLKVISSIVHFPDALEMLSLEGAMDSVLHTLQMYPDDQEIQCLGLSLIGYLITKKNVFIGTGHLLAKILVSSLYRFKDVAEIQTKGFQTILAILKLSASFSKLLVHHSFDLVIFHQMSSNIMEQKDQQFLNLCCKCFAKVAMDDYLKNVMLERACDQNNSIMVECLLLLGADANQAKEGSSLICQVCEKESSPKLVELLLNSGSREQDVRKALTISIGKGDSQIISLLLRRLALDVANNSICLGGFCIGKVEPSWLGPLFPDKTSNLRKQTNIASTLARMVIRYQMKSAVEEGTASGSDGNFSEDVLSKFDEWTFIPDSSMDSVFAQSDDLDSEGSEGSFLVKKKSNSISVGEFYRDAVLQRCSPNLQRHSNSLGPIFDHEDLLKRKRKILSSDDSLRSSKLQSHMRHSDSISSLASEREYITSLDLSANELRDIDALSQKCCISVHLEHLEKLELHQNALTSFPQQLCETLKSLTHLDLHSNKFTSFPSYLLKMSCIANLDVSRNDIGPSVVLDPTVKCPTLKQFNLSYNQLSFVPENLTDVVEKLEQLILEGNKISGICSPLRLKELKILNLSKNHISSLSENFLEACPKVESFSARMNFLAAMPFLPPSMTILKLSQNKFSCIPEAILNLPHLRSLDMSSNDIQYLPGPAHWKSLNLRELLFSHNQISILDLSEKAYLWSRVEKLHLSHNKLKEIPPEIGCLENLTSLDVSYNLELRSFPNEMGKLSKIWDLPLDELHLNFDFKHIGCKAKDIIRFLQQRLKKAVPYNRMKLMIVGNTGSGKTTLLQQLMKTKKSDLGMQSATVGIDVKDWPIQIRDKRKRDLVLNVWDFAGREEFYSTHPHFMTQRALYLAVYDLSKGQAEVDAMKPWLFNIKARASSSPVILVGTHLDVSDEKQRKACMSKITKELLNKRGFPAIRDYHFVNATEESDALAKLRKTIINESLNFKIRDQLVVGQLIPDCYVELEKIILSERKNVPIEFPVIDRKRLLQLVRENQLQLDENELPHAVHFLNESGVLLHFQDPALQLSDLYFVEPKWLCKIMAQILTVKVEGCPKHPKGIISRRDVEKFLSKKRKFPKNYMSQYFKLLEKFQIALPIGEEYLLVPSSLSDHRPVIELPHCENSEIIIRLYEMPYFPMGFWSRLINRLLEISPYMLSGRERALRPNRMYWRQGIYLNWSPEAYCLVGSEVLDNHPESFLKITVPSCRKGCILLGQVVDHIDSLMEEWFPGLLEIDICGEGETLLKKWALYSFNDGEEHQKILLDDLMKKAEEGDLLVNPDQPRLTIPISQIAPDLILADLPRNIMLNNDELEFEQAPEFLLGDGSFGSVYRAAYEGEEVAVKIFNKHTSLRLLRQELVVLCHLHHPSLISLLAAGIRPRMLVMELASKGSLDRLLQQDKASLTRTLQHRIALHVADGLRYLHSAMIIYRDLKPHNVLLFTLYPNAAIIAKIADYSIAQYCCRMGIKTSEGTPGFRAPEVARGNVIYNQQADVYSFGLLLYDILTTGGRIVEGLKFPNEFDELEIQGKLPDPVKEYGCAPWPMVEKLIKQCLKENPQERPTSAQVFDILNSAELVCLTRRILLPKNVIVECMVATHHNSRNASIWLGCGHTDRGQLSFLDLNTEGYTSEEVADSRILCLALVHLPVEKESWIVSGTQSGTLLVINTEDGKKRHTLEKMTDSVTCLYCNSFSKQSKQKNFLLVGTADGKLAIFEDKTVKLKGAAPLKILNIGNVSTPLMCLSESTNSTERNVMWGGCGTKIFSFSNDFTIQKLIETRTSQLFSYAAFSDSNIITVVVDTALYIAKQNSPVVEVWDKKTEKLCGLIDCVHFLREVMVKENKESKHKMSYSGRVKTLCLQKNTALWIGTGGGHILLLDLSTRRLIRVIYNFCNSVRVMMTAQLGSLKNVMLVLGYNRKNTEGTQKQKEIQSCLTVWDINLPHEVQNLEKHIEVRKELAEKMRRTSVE
The description is as above. Type of experiment: binding. The note with it: LRRK2(G2019S), 10 µM; read-out: score (%).

In experiment [7] the target is T7, KinomeScan kinase panel (Homo sapiens, UniProt Q86Y07).
T7 construct: purchased DiscoveRx (KinomeScan)
T7 sequence (Q86Y07 whole entry): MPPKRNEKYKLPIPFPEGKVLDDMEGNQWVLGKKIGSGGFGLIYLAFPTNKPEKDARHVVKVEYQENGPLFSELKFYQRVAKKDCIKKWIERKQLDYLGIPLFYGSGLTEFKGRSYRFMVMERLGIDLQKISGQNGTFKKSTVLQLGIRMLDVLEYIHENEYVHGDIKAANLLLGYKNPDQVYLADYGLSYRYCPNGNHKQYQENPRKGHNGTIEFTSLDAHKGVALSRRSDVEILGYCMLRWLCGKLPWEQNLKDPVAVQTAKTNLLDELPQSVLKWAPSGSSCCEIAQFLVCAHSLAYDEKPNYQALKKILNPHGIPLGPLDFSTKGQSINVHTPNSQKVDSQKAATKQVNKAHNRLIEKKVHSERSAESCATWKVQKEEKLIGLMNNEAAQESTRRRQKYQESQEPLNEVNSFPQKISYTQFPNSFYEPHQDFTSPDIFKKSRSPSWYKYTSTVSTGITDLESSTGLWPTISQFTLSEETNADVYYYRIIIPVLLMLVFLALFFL
Described as above. Type of experiment: binding. The note with it: kinase VRK2; 10 µM; read-out: score (%).

T1 sequence (O14733 whole entry): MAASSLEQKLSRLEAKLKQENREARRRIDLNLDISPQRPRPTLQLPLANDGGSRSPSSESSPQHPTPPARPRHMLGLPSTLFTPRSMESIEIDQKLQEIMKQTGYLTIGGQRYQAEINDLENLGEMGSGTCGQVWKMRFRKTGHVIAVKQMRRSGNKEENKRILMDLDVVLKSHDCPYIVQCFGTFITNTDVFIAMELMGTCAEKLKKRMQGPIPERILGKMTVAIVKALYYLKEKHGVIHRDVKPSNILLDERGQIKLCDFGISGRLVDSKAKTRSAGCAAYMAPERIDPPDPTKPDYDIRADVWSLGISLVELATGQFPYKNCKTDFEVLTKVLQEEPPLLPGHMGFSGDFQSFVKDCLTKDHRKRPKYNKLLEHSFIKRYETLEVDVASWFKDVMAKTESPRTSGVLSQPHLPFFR
T5 sequence (Q13163 whole entry): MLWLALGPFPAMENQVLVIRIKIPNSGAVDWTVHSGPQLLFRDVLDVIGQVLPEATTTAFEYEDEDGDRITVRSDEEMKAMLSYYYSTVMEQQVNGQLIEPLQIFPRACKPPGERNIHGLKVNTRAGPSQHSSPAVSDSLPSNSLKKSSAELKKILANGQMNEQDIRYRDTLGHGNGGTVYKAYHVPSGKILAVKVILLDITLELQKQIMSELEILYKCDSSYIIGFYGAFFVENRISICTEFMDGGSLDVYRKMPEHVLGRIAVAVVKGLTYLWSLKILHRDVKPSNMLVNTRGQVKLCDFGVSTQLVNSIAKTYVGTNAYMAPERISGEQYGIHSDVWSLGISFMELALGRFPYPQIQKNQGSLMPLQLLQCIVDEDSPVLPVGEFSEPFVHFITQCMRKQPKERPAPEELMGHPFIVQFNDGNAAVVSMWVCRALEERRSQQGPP
Protocol for Ba/F3-RET/PTC3 cells: Fibroblasts were kept in medium supplemented with 5% fetal calf serum. Human cells were kept in 2% (TPC1), 5% (Nthy-ori-3-1), 20% (TT) or 10% (MZ-CRC-1) fetal calf serum. […] Cells were counted every 1–2 (fibroblasts) or 2–3 (human cell lines) days. Ba/F3 cells were kept in 10% fetal calf serum in 6-well dishes (200,000/well) and counted daily for 4 consecutive days, changing media every 2 days.
Differently from Ba/F3 NCOA4-RET, parental Ba/F3 were grown in the presence of IL3. Data are the mean ± SD of two experiments performed in triplicate.

For the compound `CCN1CCN(Cc2ccc(NC(=O)c3ccc(C)c(NC(=O)c4cncc(-c5cccs5)c4)c3)cc2C(F)(F)F)CC1` [ALW-II-41-27], the “effect on RET/PTC3-driven proliferation” value in the experiment with Ba/F3-RET/PTC3 cells is reported as “blunted”.

For `CCN1CCN(Cc2ccc(NC(=O)c3ccc(C)c(C#Cc4cccnc4)c3)cc2C(F)(F)F)CC1` [XMD15-44], the “score (%)” value on KinomeScan kinase panel [1] is 11%. Further, the remaining binding at 10 µM at KinomeScan kinase panel [2] is above 30%; on KinomeScan kinase panel [3] it was 27%; at KinomeScan kinase panel [4], 53%; on KinomeScan kinase panel [5], 0.4%; on KinomeScan kinase panel [6], 7.5%; at KinomeScan kinase panel [7], 95%.
